Data published in article PMC7278776, “Multidrug Resistance Modulation Activity of Silybin Derivatives and Their Anti-Inflammatory Potential” (Antioxidants, 2020).

How the values were obtained:
ABCC10 = ABCC10 mRNA expression (real-time PCR); assay type: cell-based, human; settings: A2780/DOX
Experimental: The A2780/DOX cell line was seeded into 5 cm Petri dishes with DMEM medium at 1 × 10^5 cell/mL. […] After 48 h of treatment, the cells were washed with PBS and harvested using the standard trypsin-EDTA procedure. The harvested cells were centrifuged (3200× g; 10 min, 4 °C). The supernatant was discarded, and the pellets were washed with 1.5 mL of cooled PBS (5400× g; 10 min, 4 °C). The washing step was repeated with 1 mL of PBS and the cells were centrifuged again (10,000× g; 3 min, 4 °C). Afterwards, the pellets were resuspended in 1 mL of Trizol (Invitrogen, Carlsbad, CA, USA) and transferred into pre-cooled RNase-free microfuge tubes. The samples were stored at −80 °C.
(§1) A Quant-iT RiboGreen RNA Assay Kit (Invitrogen) was used to determine the RNA concentration using the Infinite M200 plate reader (Tecan, Männedor, Switzerland). The cDNA was prepared from 0.5 µg of total RNA using a RevertAid First Strand Synthesis cDNA Kit (MBI Fermentas, Vilnius, Lithuania). The amplification of the ubiquitin C gene fragment was used to determine the quality of cDNA.
(§2) The experiment was performed using the ViiA7 Real-Time polymerase chain reaction (PCR) System (Life Technologies, Camarillo, CA, USA) with a 384-well block. Before quantitative real-time PCR, the master mix was prepared by mixing 2 µL of 8 × diluted cDNA, 1.75 µL of RNase free water, 1 µL of 5 × HotFIREPol Probe quantitative PCR Mix Plus (Solis Biodyne, Tartu, Estonia) and 0.25 µL of specific 20 × TaqMan Gene Expression Assay (Life Technologies), giving 5 µL of final reaction volume. Cycling parameters were: initial hold at 50 °C for 2 min and denaturation at 95 °C for 10 min, followed by 45 cycles consisting of denaturation at 95 °C for 15 s and annealing/extension at 60 °C for 1 min. After each extension phase, the fluorescence values were acquired. Duplicate samples were used for measurement and samples with a standard deviation of duplicates > 1.0 cycle threshold (Ct) were re-analyzed. The real time PCR procedure was maintained according to MIQE (Minimum information for publication of quantitative real-time PCR experiments) guidelines. The software REST 2009 (Qiagen, Hilden, Germany) served to compare relative transcript levels of genes in the cell line.

ABCD1 = ABCD1 mRNA expression (real-time PCR); assay type: cell-based, human; settings: A2780/DOX
Experimental: (§3) The A2780/DOX cell line was seeded into 5 cm Petri dishes with DMEM medium at 1 × 10^5 cell/mL. After 24 h, the dishes were washed with PBS and new DMEM medium supplemented with doxorubicin (at concentration equal to IC25) and samples (10 µM) were added. After 48 h of treatment, the cells were washed with PBS and harvested using the standard trypsin-EDTA procedure. The harvested cells were centrifuged (3200× g; 10 min, 4 °C). The supernatant was discarded, and the pellets were washed with 1.5 mL of cooled PBS (5400× g; 10 min, 4 °C). The washing step was repeated with 1 mL of PBS and the cells were centrifuged again (10,000× g; 3 min, 4 °C). Afterwards, the pellets were resuspended in 1 mL of Trizol (Invitrogen, Carlsbad, CA, USA) and transferred into pre-cooled RNase-free microfuge tubes. The samples were stored at −80 °C.
as §1, §2

ABCC1 (MRP1) = assay: ABCC1 mRNA expression (real-time PCR); assay type: cell-based, human
Experimental: as §3, §1, §2

A2780/DOX = assay: Sensitization of the MDR cell line to doxorubicin; assay type: cell-based, human
Experimental: A multidrug resistant ovarian sub-line resistant to doxorubicin (A2780/DOX, Sigma-Aldrich) was cultivated in DMEM medium with 10% FBS and 1 × antibiotic antimycotic solution. Every other passage, doxorubicin at the final concentration of 0.1 µM was added to the culture medium to maintain the resistance of the cell line. To perform experiments, the cells were seeded at 1 × 10^5 cell/mL into the wells of a 96-well plate and incubated for 24 h. Afterwards, the cells were washed with PBS and fresh DMEM medium with tested compounds at 10, 20 and 30 µM were added to each well, except for the control wells. Subsequently, the cells were exposed to increasing concentrations of doxorubicin (0.6–20 µM) for 72 h. After incubation, the resazurin assay was performed as described above. The IC50 of doxorubicin was calculated for both the control and the samples and the fold change was counted up. […] The fold change lower than 1 means an antagonistic effect. (1) FOLD CHANGE=IC50 value of DOX cells treated with chemotherapeutic /IC50 value of DOX cells treated with chemotherapeutic and compound

ABCA2 = ABCA2 mRNA expression (real-time PCR); assay type: cell-based, human; settings: A2780/DOX, 10 µM combined with doxorubicin at IC25, 48 h
Experimental: as §3, §1, §2

[1] = ORAC (oxygen radical absorption capacity) assay; settings: fluorescein/AAPH; read-out: ORAC, concentration necessary to halve the fluorescence response (IC50)
Experimental: Antioxidant capacity of samples was determined by ORAC (oxygen radical absorption capacity) and CAA (cellular antioxidant activity) assays. ORAC assay was realized by the previously described protocol. Briefly, 50 µL of the fluorescein solution (1.6 µg/mL in phosphate-buffered saline (PBS), pH 7.4) was added by a dispenser (MultiFlo Microplate Dispenser, BioTek Instrument, Winooski, VT, USA) into each well of a 96-well plate. Subsequently, 2 µL of tested compound in the concentration range 1.25–20 µM and 23 µL of PBS were added to the wells. The plate was incubated for 15 min at 37 °C and then 25 µL of AAPH (60 mg/mL) was added to each well. AAPH was replaced with PBS for the negative control. Immediately, the fluorescence was recorded by the microplate reader (SpectraMax i3 Multi-Mode Detection Platform, Molecular Devices, San Jose, CA, USA) for 2 h in 5 min steps (excitation/emission 485/535 nm).

ABCB9 = ABCB9 mRNA expression (real-time PCR); assay type: cell-based, human; settings: A2780/DOX, 10 µM combined with doxorubicin at IC25, 48 h
Experimental: as §3, §1, §2

ABCA1 = ABCA1 mRNA expression (real-time PCR); assay type: cell-based, human; settings: A2780/DOX
Experimental: as §3, §1, §2

human recombinant P-gp = molecular target: T1, human recombinant P-gp (Homo sapiens, UniProt P08183); assay: biochemical
T1 construct: purchased Promega
Experimental: The procedure and the dilution of the reagents were performed according to the manufacturer’s instructions. Briefly, the human recombinant P-gp-containing membrane (25 µg) was mixed in a 96-well plate with P-gp–Glo™ Assay buffer (control), verapamil (P-gp substrate, positive control, 0.2 mM), Na3VO4 (P-gp inhibitor, negative control, 0.1 mM), ATP standards (to construct the calibration curve, 0.375–3 mM) or samples (2.5 µL, in the concentration range 0.7–20 mM). After that, MgATP (5 mM) was added to total volume of 50 µL to each well to initiate the ATPase reaction. The plate was incubated for 1 h at 37 °C. Thereafter, the reaction was stopped by adding 50 µL of ATP detection reagent and incubated at room temperature for 20 min. The remaining non-metabolized ATP was detected as a luciferase-generated signal.
Using linear regression, the standard ATP curve was designed, and by subsequent interpolation of relative luminescence (RLU) of standards, the amount of ATP consumed in the samples was recalculated according to the manufacturer’s guidelines.

[2] = 10 µM combined with doxorubicin at IC25, 48 h
[3] = 10 µM, 48 h, without doxorubicin
[4] = A2780/DOX, 10 µM combined with doxorubicin at IC25, 48 h
[5] = A2780/DOX, 10 µM, 48 h, without doxorubicin

T1 sequence (P08183 whole entry): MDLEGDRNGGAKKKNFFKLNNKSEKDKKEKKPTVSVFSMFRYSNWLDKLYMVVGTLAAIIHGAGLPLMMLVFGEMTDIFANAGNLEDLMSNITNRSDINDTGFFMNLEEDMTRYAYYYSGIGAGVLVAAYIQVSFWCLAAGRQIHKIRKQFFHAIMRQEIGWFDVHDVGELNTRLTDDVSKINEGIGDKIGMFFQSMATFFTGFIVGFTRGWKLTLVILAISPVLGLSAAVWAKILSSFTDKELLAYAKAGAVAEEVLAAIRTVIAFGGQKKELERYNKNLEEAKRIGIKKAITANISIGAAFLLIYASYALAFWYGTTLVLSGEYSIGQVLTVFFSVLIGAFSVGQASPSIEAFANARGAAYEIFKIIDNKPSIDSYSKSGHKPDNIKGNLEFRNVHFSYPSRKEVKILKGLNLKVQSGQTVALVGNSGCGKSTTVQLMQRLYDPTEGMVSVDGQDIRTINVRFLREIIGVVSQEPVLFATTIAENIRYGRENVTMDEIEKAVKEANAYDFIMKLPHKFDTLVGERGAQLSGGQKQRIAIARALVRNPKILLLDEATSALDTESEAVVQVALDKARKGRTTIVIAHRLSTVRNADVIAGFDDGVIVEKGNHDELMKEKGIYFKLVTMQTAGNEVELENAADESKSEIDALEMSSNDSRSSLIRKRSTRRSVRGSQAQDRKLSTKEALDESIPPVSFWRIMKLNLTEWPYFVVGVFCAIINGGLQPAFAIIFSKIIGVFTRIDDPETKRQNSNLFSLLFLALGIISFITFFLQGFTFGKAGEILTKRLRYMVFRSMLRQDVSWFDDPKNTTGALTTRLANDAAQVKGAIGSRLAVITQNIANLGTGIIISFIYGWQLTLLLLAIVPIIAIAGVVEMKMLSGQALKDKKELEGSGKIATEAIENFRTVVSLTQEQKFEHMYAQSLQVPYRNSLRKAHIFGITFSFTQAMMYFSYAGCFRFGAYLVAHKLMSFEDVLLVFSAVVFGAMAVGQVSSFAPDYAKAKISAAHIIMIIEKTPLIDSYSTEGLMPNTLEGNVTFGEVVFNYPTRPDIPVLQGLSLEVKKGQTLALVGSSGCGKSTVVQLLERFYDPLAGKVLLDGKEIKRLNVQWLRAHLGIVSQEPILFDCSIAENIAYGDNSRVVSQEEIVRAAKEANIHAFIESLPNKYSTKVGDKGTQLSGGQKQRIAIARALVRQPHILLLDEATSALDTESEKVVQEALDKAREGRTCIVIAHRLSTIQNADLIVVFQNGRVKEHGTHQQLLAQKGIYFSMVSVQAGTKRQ

COc1cc([C@H]2Oc3cc(-c4oc5cc(O)cc(O)c5c(=O)c4O)ccc3O[C@@H]2CO)ccc1O [Dehydrosilybin A, 2,3-dehydrosilybin A]
ABCC10 Expression Difference (ABCC10; [2]): 1.214
ABCC10 Expression Difference (ABCC10; [3]): 1.200
ABCD1 Expression Difference (ABCD1; [2]): 1.435
ABCD1 Expression Difference (ABCD1; [3]): 1.063
ABCC1 Expression Difference (ABCC1 (MRP1); [4]): 0.907
Doxorubicin-sensitization rate (ratio of IC50 of doxorubicin and doxorubicin + tested compound) (A2780/DOX; compound 10 µM): (2.1 ± 0.3) ×
Doxorubicin-sensitization rate (ratio of IC50 of doxorubicin and doxorubicin + tested compound) (A2780/DOX; compound 20 µM): (2.5 ± 0.2) ×
Doxorubicin-sensitization rate (ratio of IC50 of doxorubicin and doxorubicin + tested compound) (A2780/DOX; compound 30 µM): (9.5 ± 0.7) ×
Doxorubicin-sensitization rate (ratio of IC50 of doxorubicin and doxorubicin + tested compound) (A2780/DOX; compound 30 µM, listed as dehydrosilybin A): ~10 ×
ABCA2 Expression Difference (ABCA2): 1.105
IC50 [1]: 11.4 ± 1.2 µM
ABCB9 Expression Difference (ABCB9): 1.109
ABCA1 Expression Difference (ABCA1; [2]): 4.172
IC50 (human recombinant P-gp): 60.7 ± 10 µM

COc1cc(C2Oc3cc(-c4oc5cc(O)cc(O)c5c(=O)c4O)ccc3OC2CO)ccc1O (stereo not shown) [Dehydrosilybin AB, 2,3-dehydrosilybin]
ABCC10 Expression Difference (ABCC10; [2]): 1.323
ABCC10 Expression Difference (ABCC10; [3]): 1.471
ABCD1 Expression Difference (ABCD1; [2]): 1.412
ABCC1 Expression Difference (ABCC1 (MRP1); [4]): 1.301
Doxorubicin-sensitization rate (ratio of IC50 of doxorubicin and doxorubicin + tested compound) (A2780/DOX; compound 10 µM): (2.4 ± 0.2) ×
ABCA2 Expression Difference (ABCA2): 1.046
IC50 [1]: 10.1 µM
ABCB9 Expression Difference (ABCB9): 1.149
ABCA1 Expression Difference (ABCA1; [2]): 3.122
ABCA1 Expression Difference (ABCA1; [3]): 1.803
IC50 (human recombinant P-gp): 21.1 ± 0.6 µM

COc1cc([C@@H]2Oc3cc(-c4oc5cc(O)cc(O)c5c(=O)c4O)ccc3O[C@H]2CO)ccc1O [Dehydrosilybin B, 2,3-dehydrosilybin B]
ABCC10 Expression Difference (ABCC10; [2]): 1.618
ABCC10 Expression Difference (ABCC10; [3]): 1.107
ABCD1 Expression Difference (ABCD1; [2]): 1.784
ABCC1 Expression Difference (ABCC1 (MRP1); [4]): 1.213
Doxorubicin-sensitization rate (ratio of IC50 of doxorubicin and doxorubicin + tested compound) (A2780/DOX; compound 10 µM): (2.0 ± 0.1) ×
ABCA2 Expression Difference (ABCA2): 1.078
IC50 [1]: 11.8 ± 0.6 µM
ABCB9 Expression Difference (ABCB9): 1.218
ABCA1 Expression Difference (ABCA1; [2]): 4.412
IC50 (human recombinant P-gp): 40.7 ± 3.8 µM

COc1cc([C@H]2Oc3cc([C@H]4Oc5cc(O)cc(O)c5C(=O)[C@@H]4O)ccc3O[C@@H]2CO)ccc1O [Silybin A, silybin A]
ABCC10 Expression Difference (ABCC10; [2]): 1.812
ABCC10 Expression Difference (ABCC10; [3]): 1.260
ABCD1 Expression Difference (ABCD1; [3]): 1.187
ABCC1 Expression Difference (ABCC1 (MRP1); [4]): 1.711
Doxorubicin-sensitization rate (ratio of IC50 of doxorubicin and doxorubicin + tested compound) (A2780/DOX; compound 10 µM): (1.3 ± 0.1) ×
Doxorubicin-sensitization rate (ratio of IC50 of doxorubicin and doxorubicin + tested compound) (A2780/DOX; compound 20 µM): (1.6 ± 0.2) ×
Doxorubicin-sensitization rate (ratio of IC50 of doxorubicin and doxorubicin + tested compound) (A2780/DOX; compound 30 µM): (1.9 ± 0.1) ×
Doxorubicin-sensitization rate (ratio of IC50 of doxorubicin and doxorubicin + tested compound) (A2780/DOX; compound 50 µM): (3.6 ± 0.3) ×
ABCA2 Expression Difference (ABCA2): 1.239
IC50 [1]: 6.6 ± 0.3 µM
ABCB9 Expression Difference (ABCB9): 1.586
ABCA1 Expression Difference (ABCA1; [2]): 2.702
IC50 (human recombinant P-gp): 43.1 ± 6.4 µM

COc1cc(C2Oc3cc([C@H]4Oc5cc(O)cc(O)c5C(=O)[C@@H]4O)ccc3OC2CO)ccc1O (stereo partly shown) [Silybin AB, silybin]
ABCC10 Expression Difference (ABCC10; [2]): 1.855
ABCC10 Expression Difference (ABCC10; [3]): 1.857
ABCD1 Expression Difference (ABCD1; [2]): 2.868
ABCC1 Expression Difference (ABCC1 (MRP1); [4]): 1.640
ABCC1 Expression Difference (ABCC1 (MRP1); [5]): 2.521
Doxorubicin-sensitization rate (ratio of IC50 of doxorubicin and doxorubicin + tested compound) (A2780/DOX; compound 10 µM): (1.4 ± 0.1) ×
Doxorubicin-sensitization rate (ratio of IC50 of doxorubicin and doxorubicin + tested compound) (A2780/DOX; compound 20 µM): (1.6 ± 0.1) ×
Doxorubicin-sensitization rate (ratio of IC50 of doxorubicin and doxorubicin + tested compound) (A2780/DOX; compound 30 µM): (1.7 ± 0.1) ×
Doxorubicin-sensitization rate (ratio of IC50 of doxorubicin and doxorubicin + tested compound) (A2780/DOX; compound 50 µM): (7.7 ± 0.4) ×
Doxorubicin-sensitization rate (ratio of IC50 of doxorubicin and doxorubicin + tested compound) (A2780/DOX; compound 50 µM, listed as silybin AB): ~10 ×
ABCA2 Expression Difference (ABCA2): 1.207
IC50 [1]: 7.1 ± 0.6 µM
ABCB9 Expression Difference (ABCB9): 1.638
ABCA1 Expression Difference (ABCA1; [2]): 2.922
ABCA1 Expression Difference (ABCA1; [3]): 2.021
IC50 (human recombinant P-gp): 32.6 ± 3.6 µM

COc1cc([C@@H]2Oc3cc([C@H]4Oc5cc(O)cc(O)c5C(=O)[C@@H]4O)ccc3O[C@H]2CO)ccc1O [Silybin B, silybin B]
ABCC10 Expression Difference (ABCC10; [2]): 1.349
ABCC10 Expression Difference (ABCC10; [3]): 0.340
ABCC10 Treated vs. Untreated (ABCC10; [3]): DOWN
ABCD1 Expression Difference (ABCD1; [3]): 0.348
ABCD1 Treated vs. Untreated (ABCD1; [3]): DOWN
downregulation of ABCC1 (MRP1) expression (ABCC1 (MRP1); [3]): 59%
ABCC1 Expression Difference (ABCC1 (MRP1); [5]): 0.413
ABCC1 Treated vs. Untreated (ABCC1 (MRP1); [5]): DOWN
Doxorubicin-sensitization rate (ratio of IC50 of doxorubicin and doxorubicin + tested compound) (A2780/DOX; compound 10 µM): (1.4 ± 0.1) ×
Doxorubicin-sensitization rate (ratio of IC50 of doxorubicin and doxorubicin + tested compound) (A2780/DOX; compound 20 µM): (1.5 ± 0.2) ×
Doxorubicin-sensitization rate (ratio of IC50 of doxorubicin and doxorubicin + tested compound) (A2780/DOX; compound 30 µM): (1.8 ± 0.1) ×
Doxorubicin-sensitization rate (ratio of IC50 of doxorubicin and doxorubicin + tested compound) (A2780/DOX; compound 50 µM): (3.3 ± 0.4) ×
ABCA2 Expression Difference (ABCA2): 0.903
ABCA2 Treated vs. Untreated (ABCA2): DOWN
IC50 [1]: 6.8 ± 0.3 µM
ABCB9 Expression Difference (ABCB9): 1.241
ABCA1 Expression Difference (ABCA1; [2]): 2.415
IC50 (human recombinant P-gp): 51.9 ± 2.1 µM
